The values below come from the OPERA property sets (Mansouri et al. 2018).

Settings in one data set: not given
For the compound `CC(C)(C)CC(C)(C)C`, the boiling point (as a rule, the temperature of boiling at a given pressure) came out at 122 °C; the log10 vapour pressure (mmHg) is 1.3; the melting point – broadly, the temperature, or range, at which the solid turns liquid – was -66.5 °C.

The compound `C[C@@H]1CC[C@H]2[C@@H]1[C@H]1[C@@H](CC[C@@]2(C)O)C1(C)C` displayed a boiling point of 292 °C and a melting point of 105 °C.

On to `C#C/C=C\C`, for which the boiling point stood at 48.4 °C.

Regarding `Clc1ccc(-c2cccc(Cl)c2Cl)c(Cl)c1`, the log10 Henry constant (atm·m³/mol) was -3.85.

As to `O=C(Nc1ccccc1)N(Cc1ccc(Cl)cc1)C1CCCC1`, the log10 Henry constant (atm·m³/mol) was -11.3, the log10 vapour pressure (mmHg) was -11.4 and the melting point turned out to be 130 °C.

`COc1cc(OC)nc(Sc2cccc(Cl)c2C(=O)[O][Na])n1` gave a log10 Koc (L/kg) of 1.15.

In the case of `O=c1cccccc1`, the melting point was -7 °C.

`C=C(Cl)C(Cl)CCl` (stereo not given) returned a boiling point of 155 °C and a log10 vapour pressure (mmHg) of 0.274.

For `CC(CCl)OC(C)CCl` (stereo not given), the boiling point is 187 °C, the log10 Koc (L/kg) was 1.67, the log10 vapour pressure (mmHg) is -0.252 and the melting point was -97 °C. The ready biodegradability result is “not readily biodegradable”.

Consider `CCOCCOc1ccccc1`, for which the boiling point was found to be 230 °C.

`O=Cc1c(F)c(F)c(F)c(F)c1F` registered a boiling point of 167 °C and a melting point of 20 °C.

For `C1=COCCC1`, the boiling point is 86 °C and the melting point is -70 °C.

The compound `CC(C)(I)I` showed a boiling point of 173 °C.

Take `COc1cc(C=CC(=O)O)cc(OC)c1OC`: the melting point is 127 °C.

`CCCCCCCCCCCCCCCC(=O)OC[C@H](COP(=O)([O-])OCC[N+](C)(C)C)OC(=O)CCCCCCCCCCCCCCC`: the melting point came out at 234 °C.

Take `CCCCCCCCCCCCCCCC(=O)N(CCO)CCO`: the ready biodegradability result is reported as “readily biodegradable”.

With `CCCCCCCCCCOC(=O)c1ccccc1C(=O)OCCCCCC`, the melting point was -4 °C.

Turning to `CCCCCCCCC(=O)N(CCO)CCO`, the ready biodegradability entry was “readily biodegradable”.

In the case of `FCC(F)F`, the boiling point was found to be 5 °C and the melting point is -84 °C.

In turn, `CCC(=O)C(C)CC` (stereo not given) gave a boiling point of 134 °C.

In turn, `NC(=O)C#CC#CC#CCO` showed a melting point of 140 °C.

For the compound `O=C(O)c1ccccc1[N+](=O)[O-]`, the melting point turned out to be 148 °C and the ready biodegradability result is “readily biodegradable”.

With `COc1ccc(Cl)nn1`, the melting point was 84.5 °C.

Regarding `Cc1ccc([N+](=O)[O-])cc1Cl`, the boiling point is 260 °C, the melting point was found to be 66.5 °C and the ready biodegradability result is “not readily biodegradable”.

Compound `O=[N+]([O-])c1ccc(S(=O)(=O)O)c([N+](=O)[O-])c1` had a melting point of 108 °C.

`O=C1c2ccccc2C(=O)C1C(=O)C(c1ccccc1)c1ccccc1`: the log10 vapour pressure (mmHg) is -9.99 and the melting point was 146 °C.

Compound `CC(=O)C(C)CO` (stereo not given) registered a log10 vapour pressure (mmHg) of -0.646.

In the case of `CC1CCCC(C)C1` (stereo not given), the boiling point was 122 °C and the log10 vapour pressure (mmHg) is 1.3.

`O=C1CCC(=O)N1` had a boiling point of 288 °C, a log10 vapour pressure (mmHg) of -4.12 and a melting point of 126 °C.

For `Cc1cccc2cc3ccc4ccccc4c3cc12`, the melting point came to 118 °C.

Turning to `CC(C)(C)OC=O`, the boiling point is 82.5 °C and the log10 Henry constant (atm·m³/mol) was -3.16.

For `Nc1c([N+](=O)[O-])cccc1[N+](=O)[O-]`, the melting point is 142 °C.

For `CCOC(=O)Cn1c(=O)sc2cccc(Cl)c21`, the log10 vapour pressure (mmHg) was -5.56 and the melting point came to 79.2 °C.

In turn, `C[C@@H]1O[C@@H](Oc2c(-c3ccc(O)c(O)c3)oc3cc(O)cc(O)c3c2=O)[C@H](O)[C@H](O)[C@H]1O` returned a melting point of 170 °C.

As to `NS(=O)(=O)c1cc(-c2nnn[nH]2)c(NCc2cccs2)cc1Cl`, the melting point was 220 °C.

For `CC(C)(C)OC(=O)CC(=O)OC(C)(C)C`, the melting point is -6 °C.

As for `CNc1ccc(Cl)cc1`, the boiling point amounted to 240 °C.

With `c1cc2ccc3ccc4ccc5ccc6ccc1c1c2c3c4c5c61`, the boiling point turned out to be 525 °C, the log10 biodegradation half-life (days) turned out to be 2.87, the log10 vapour pressure (mmHg) was -11.7 and the melting point was found to be 437 °C.

As for `C[Si](C)(C)CBr`, the boiling point was 116 °C.

`Clc1cc(Cl)nc(Cl)n1` had a boiling point of 212 °C and a melting point of 22.5 °C.

Regarding `CCC(=O)c1ccc(O)cc1O`, the melting point came out at 99 °C.

With `C=CCCCCCCCCCCCCCCCCCCCC`, the boiling point is 367 °C and the melting point was found to be 38 °C.

With `CCN(O)CC`, the boiling point came out at 133 °C, the log10 vapour pressure (mmHg) stood at 0.526, the melting point was determined as 10 °C and the ready biodegradability result was “not readily biodegradable”.

`CC(C)(CC(=O)O)c1ccccc1` had a melting point of 60 °C.

In the case of `ClCCOCCCl`, the boiling point was determined as 178 °C, the log10 Koc (L/kg) was determined as 1.88, the log10 vapour pressure (mmHg) was found to be 0.19 and the melting point is -51.9 °C. The ready biodegradability entry is recorded as “not readily biodegradable”.

Regarding `C=CCCl`, the boiling point was 45.1 °C, the log10 vapour pressure (mmHg) was 2.57, the melting point was -134 °C and the ready biodegradability result was “readily biodegradable”.

Staying with this data set, now noted: fish.
`Nc1ccccc1-c1ccccc1`: the log10 BCF was found to be 1.41 and the log10 biotransformation half-life (days) was -1.06.

Take `CON(C)C(=O)Nc1ccc(Cl)c(Cl)c1`: the log10 BCF was found to be 1.25 and the log10 biotransformation half-life (days) is -0.97.

`COc1ccc(N)c([N+](=O)[O-])c1` yielded a log10 BCF of 0.85 and a log10 biotransformation half-life (days) of -0.87.

The compound `Nc1cccc2cccc(N)c12` yielded a log10 BCF of 0.8 and a log10 biotransformation half-life (days) of -0.73.

`CCCCCCCCCc1ccc(O)cc1` had a log10 BCF of 2.58 and a log10 biotransformation half-life (days) of -0.23.

Regarding `Clc1ccc(-c2cccc(Cl)c2Cl)c(Cl)c1`, the log10 biotransformation half-life (days) is 2.62.

Compound `CC(CCl)OC(C)CCl` (stereo not given) came in with a log10 BCF of 1.08 and a log10 biotransformation half-life (days) of -1.07.

As to `ClCCOCCCl`, the log10 BCF came out at 1 and the log10 biotransformation half-life (days) was -0.81.

With `C=CCCl`, the log10 BCF came out at 0.7 and the log10 biotransformation half-life (days) was -0.93.
